According to patent publication US20040254173A1, “Modulation of dopamine responses with substituted (S)-2,3-benzodiazepines” (priority 2003, published 2004):

Key:
central BZ receptors = conditions: cited from earlier work
peripheral BZ receptors = peripheral BZ receptors (Homo sapiens, UniProt P30536); conditions: cited from earlier work
[1] = test system: apomorphine-induced hypothermia, stereotypies and climbing; assay: Low Dose Apomorphine Test in the mouse; assay type: in vivo; conditions: for STEREOTYPY (intensity score), 20 min after apomorphine, mean ± s.e.m. / STEREOTYPY (intensity score), 50 min after apomorphine, mean ± s.e.m.: 4 point scale (0-3); for CLIMBING (No. of mice), 20 minutes after apomorphine / CLIMBING (No. of mice), 50 minutes after apomorphine: 6 mice per group; for Rectal Temperature, 30 min after apomorphine, mean ± s.e.m. / Rectal Temperature, 60 min after apomorphine, mean ± s.e.m. / Rectal Temperature, before apomorphine, mean ± s.e.m.: mouse; for Rectal Temperature, 30 min after apomorphine, mean change from control / Rectal Temperature, 60 min after apomorphine, mean change from control / STEREOTYPY (intensity score), 20 min after apomorphine, mean change from control / STEREOTYPY (intensity score), 50 min after apomorphine, mean change from control: vs vehicle; for Rectal Temperature, before apomorphine, mean ± s.e.m.: 30 min after test substance
Text: Racemic tofisopam, (R)-tofisopam and (S)-tofisopam were investigated in the Low Dose Apomorphine Test in the mouse to evaluate their pro- or anti-dopaminergic activity following intraperitoneal (i.p.) administration of apomorphine. Apomorphine, at a low dose, induces hypothermia, stereotypies and climbing. All three of these symptoms are potentiated by dopaminergic agonists and antagonized by dopamine antagonists, such as classical neuroleptics. The Low Dose Apomorphine Test, thus serves to detect pro- or antidopaminergic activity. The test was performed according to the protocols described by Chermat and Poncelet. See, Chermat R., Poncelet M., “Antagonisme des redressements, des stéréotypies et de l'hypotheimie induits par 1 ou 16 mg.kg-1 d'apomorphine,” J. Pharmacol., 14, 93-97, 1983.
Male mice of Rj: NMRI strain, 23-26 g body weight range were supplied by Elevage Janvier, 53940 Le Genest-Saint-Isle, France. The animals were delivered to the laboratory at least 3 days before the experiment and, upon arrival, were housed 10 per cage in macrolon cages (25×19×13 cm) containing wood shavings (Litalabo-SPPS, 95100 Argenteuil, France) with free access to food (UAR 113-UAR, 91360 Epinay-sur-Orge, France) and tap water (i.e. non-fasted) until tested. The animal house was maintained under artificial lighting (12 hours) between 7.00 and 19.00 in a controlled ambient temperature of 21±1° C., and relative humidity maintained at 40-70%.
The different treatments were equally distributed between the animals. During the experiment, each animal within a cage received the same treatment. Animals within a cage were individually marked on the tail with an indelible pen.
The experiment was conducted blind with treatment vials labeled A, B, C etc., according to a standardized coding procedure. The evaluation of the different treatments was balanced over time by testing successive series of individual animals from each treatment group in a fixed rotation (A, B, C, etc.). Animals were sacrificed at the end of the experiment by exposure to CO2.
Three compounds, racemic tofisopam, (R)-tofisopam and (S)-tofisopam were tested in the Low Dose Apomorphine Test. Each of these three compounds was dosed as a dispersion in 0.2% hydroxypropylmethylcellulose (HPMC) (Sigma), in sterile physiological saline (Laboratoire Aguettant).
Two reference standards were also dosed. Bromocriptine, methanesulfonate (Sigma), a known dopamine agonist, and haloperidol (Sigma), a known dopamine antagonist, were dispersed in 0.2% HPMC in sterile physiological saline.
Apomorphine hydrochloride, the dopamine mimetic employed in the assay, was dissolved in water for injectable preparation (Laboratoire Aguettant). Dosing: All of the dosed substances were administered in a volume of 10 ml/kg. The doses are expressed in mg/kg of supplied substance.
6 mice were studied per group. The test was performed blind.
Racemic tofisopam, (R)-tofisopam and (S)-tofisopam were administered at doses of 16, 32 and 64 mg/kg, administered intraperitonealy (i.p.), 30 minutes prior to administration of apomorphine.
The rectal temperature of the mice was measured prior to apomorphine dosing using a rectal probe (Physitemp Instruments Digital Laboratory Thermometer Model BAT-12). The mice were then placed in individual Plexiglas cages (10×6×4 cm) attached with the opening against a vertical wire grid.
The mice were then injected subcutaneously (s.c.) with apomorphine (1 mg/kg). Rectal temperature was measured 30 and 60 minutes after the injection of apomorphine.
The intensity of stereotypies (sniffing, licking, gnawing), were scored at 20 minutes and 50 minutes after injection of apomorphine on a 4 point scale (0-3). The presence (1) or absence (0) of climbing against the wire grid wall, were also assessed 20 and 50 minutes after injection of apomorphine.
The reference standards bromocriptine (16 mg/kg) and haloperidol (0.5 mg/kg), were administered under the same experimental conditions.

[2] = test system: anti-noradrenergic effects; conditions: Ito 1981; cited from earlier work
aggression in mice = conditions: Ito 1981; cited from earlier work
[3] = test system: muricide (mouse killing behavior) in rats; conditions: Ito 1981; cited from earlier work
narcosis = conditions: mice; U.S. Pat. No. 4,322,346; cited from earlier work
[4] = 16 mg/kg i.p. 30 min before apomorphine 1 mg/kg s.c.
[5] = 32 mg/kg i.p. 30 min before apomorphine 1 mg/kg s.c.
[6] = 64 mg/kg i.p. 30 min before apomorphine 1 mg/kg s.c.

peripheral BZ receptors, sequence (P30536 whole entry): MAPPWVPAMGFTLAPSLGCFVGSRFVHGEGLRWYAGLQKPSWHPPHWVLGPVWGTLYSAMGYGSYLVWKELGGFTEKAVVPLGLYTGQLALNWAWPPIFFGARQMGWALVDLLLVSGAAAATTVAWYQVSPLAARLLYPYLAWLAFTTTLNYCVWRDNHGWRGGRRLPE

CCC1C(C)=NN=C(c2ccc(OC)c(OC)c2)c2cc(OC)c(OC)cc21 (racemic) [Racemic tofisopam, racemic-1-(3,4-dimethoxyphenyl)-4-methyl-5-ethyl-7,8-dimethoxy-5H-2,3-benzodiazepine]
interaction with central BZ receptors (central BZ receptors): does not interact | binding to peripheral BZ receptors (peripheral BZ receptors): binds only weakly | STEREOTYPY (intensity score), 20 min after apomorphine, mean ± s.e.m. [1, 4]: 3.0 ± 0.0 | STEREOTYPY (intensity score), 50 min after apomorphine, mean ± s.e.m. [1, 4]: 0.7 ± 0.2 | CLIMBING (No. of mice), 20 minutes after apomorphine [1, 4]: 6 No. of mice | CLIMBING (No. of mice), 50 minutes after apomorphine [1, 4]: 3 No. of mice | Rectal Temperature, 30 min after apomorphine, mean ± s.e.m. [1, 4]: 35.3 ± 0.6 °C | Rectal Temperature, 60 min after apomorphine, mean ± s.e.m. [1, 4]: 36.9 ± 0.3 °C | Rectal Temperature, 30 min after apomorphine, mean change from control [1, 4]: +0.2 °C | Rectal Temperature, 60 min after apomorphine, mean change from control [1, 4]: +0.2 °C | STEREOTYPY (intensity score), 20 min after apomorphine, mean change from control [1, 4]: +0.8 | STEREOTYPY (intensity score), 50 min after apomorphine, mean change from control [1, 4]: −0.3 | Rectal Temperature, before apomorphine, mean ± s.e.m. ([1]; 16 mg/kg i.p.): 37.3 ± 0.1 °C | STEREOTYPY (intensity score), 20 min after apomorphine, mean ± s.e.m. [1, 5]: 2.8 ± 0.2 | STEREOTYPY (intensity score), 50 min after apomorphine, mean ± s.e.m. [1, 5]: 0.8 ± 0.3 | CLIMBING (No. of mice), 20 minutes after apomorphine [1, 5]: 6 No. of mice | CLIMBING (No. of mice), 50 minutes after apomorphine [1, 5]: 5 No. of mice | Rectal Temperature, 30 min after apomorphine, mean ± s.e.m. [1, 5]: 34.3 ± 0.5 °C | Rectal Temperature, 60 min after apomorphine, mean ± s.e.m. [1, 5]: 36.6 ± 0.3 °C | Rectal Temperature, 30 min after apomorphine, mean change from control [1, 5]: −0.8 °C | Rectal Temperature, 60 min after apomorphine, mean change from control [1, 5]: −0.1 °C | STEREOTYPY (intensity score), 20 min after apomorphine, mean change from control [1, 5]: +0.6 | STEREOTYPY (intensity score), 50 min after apomorphine, mean change from control [1, 5]: −0.2 | Rectal Temperature, before apomorphine, mean ± s.e.m. ([1]; 32 mg/kg i.p.): 37.1 ± 0.2 °C | STEREOTYPY (intensity score), 20 min after apomorphine, mean ± s.e.m. [1, 6]: 2.3 ± 0.2 | STEREOTYPY (intensity score), 50 min after apomorphine, mean ± s.e.m. [1, 6]: 1.3 ± 0.2 | CLIMBING (No. of mice), 20 minutes after apomorphine [1, 6]: 6 No. of mice | CLIMBING (No. of mice), 50 minutes after apomorphine [1, 6]: 4 No. of mice | Rectal Temperature, 30 min after apomorphine, mean ± s.e.m. [1, 6]: 33.9 ± 0.5 °C | Rectal Temperature, 60 min after apomorphine, mean ± s.e.m. [1, 6]: 36.3 ± 0.3 °C | Rectal Temperature, 30 min after apomorphine, mean change from control [1, 6]: −1.2 °C | Rectal Temperature, 60 min after apomorphine, mean change from control [1, 6]: −0.4 °C | STEREOTYPY (intensity score), 20 min after apomorphine, mean change from control [1, 6]: +0.1 | STEREOTYPY (intensity score), 50 min after apomorphine, mean change from control [1, 6]: +0.3 | Rectal Temperature, before apomorphine, mean ± s.e.m. ([1]; 64 mg/kg i.p.): 37.2 ± 0.2 °C | behaviour on apomorphine-induced hypothermia (rectal temperature) ([1]; 64 mg/kg, thirty and sixty minute time points, trend not statistically significant): weak dopamine antagonist | behaviour on apomorphine-induced stereotypies ([1]; 16 and 32 mg/kg, twenty minute time point, significant only at 16 mg/kg): strong dopamine agonist

CCC1C(C)=NN=C(c2ccc(OC)c(OC)c2)c2cc(OC)c(O)cc21 (centres unmarked) [1-(3,4-Dimethoxyphenyl)-4-methyl-5-ethyl-7-hydroxy-8-methoxy-5H-2,3-benzodiazepine]
antinoradrenergic effect [2]: no antinoradrenergic effect | inhibition of aggression in mice (aggression in mice): 0% | inhibition of muricide [3]: 20%

CCC1C(C)=NN=C(c2ccc(O)c(OC)c2)c2cc(OC)c(O)cc21 (centres unmarked) [1-(3-Methoxy-4-hydroxyphenyl)-4-methyl-5-ethyl-7-hydroxy-8-methoxy-5H-2,3-benzodiazepine]
antinoradrenergic effect [2]: a measurable antinoradrenergic effect | inhibition of aggression in mice (aggression in mice): 28.6% | inhibition of muricide [3]: 20%

CCC1C(C)=NN=C(c2ccc(O)c(OC)c2)c2cc(OC)c(OC)cc21 (centres unmarked) [1-(3-Methoxy-4-hydroxyphenyl)-4-methyl-5-ethyl-7,8-dimethoxy-5H-2,3-benzodiazepine]
antinoradrenergic effect [2]: a measurable antinoradrenergic effect | narcosis-potentiating activity (narcosis): narcosis-potentiating activity | inhibition of aggression in mice (aggression in mice): 0% | inhibition of muricide [3]: 0%
